According to ChEMBL document CHEMBL2074408, “Altered pharmacokinetics of vinblastine in Mdr1a P-glycoprotein-deficient Mice” (J Natl Cancer Inst, 1996):

Target: ATP-dependent translocase ABCB1 (Mus musculus, UniProt P21447)
Test: TP_TRANSPORTER: increase in brain concentration in mdr1a(-/-) mouse
Type: functional, organism-based
Details: in vivo

ATP-dependent translocase ABCB1, sequence (P21447 whole entry): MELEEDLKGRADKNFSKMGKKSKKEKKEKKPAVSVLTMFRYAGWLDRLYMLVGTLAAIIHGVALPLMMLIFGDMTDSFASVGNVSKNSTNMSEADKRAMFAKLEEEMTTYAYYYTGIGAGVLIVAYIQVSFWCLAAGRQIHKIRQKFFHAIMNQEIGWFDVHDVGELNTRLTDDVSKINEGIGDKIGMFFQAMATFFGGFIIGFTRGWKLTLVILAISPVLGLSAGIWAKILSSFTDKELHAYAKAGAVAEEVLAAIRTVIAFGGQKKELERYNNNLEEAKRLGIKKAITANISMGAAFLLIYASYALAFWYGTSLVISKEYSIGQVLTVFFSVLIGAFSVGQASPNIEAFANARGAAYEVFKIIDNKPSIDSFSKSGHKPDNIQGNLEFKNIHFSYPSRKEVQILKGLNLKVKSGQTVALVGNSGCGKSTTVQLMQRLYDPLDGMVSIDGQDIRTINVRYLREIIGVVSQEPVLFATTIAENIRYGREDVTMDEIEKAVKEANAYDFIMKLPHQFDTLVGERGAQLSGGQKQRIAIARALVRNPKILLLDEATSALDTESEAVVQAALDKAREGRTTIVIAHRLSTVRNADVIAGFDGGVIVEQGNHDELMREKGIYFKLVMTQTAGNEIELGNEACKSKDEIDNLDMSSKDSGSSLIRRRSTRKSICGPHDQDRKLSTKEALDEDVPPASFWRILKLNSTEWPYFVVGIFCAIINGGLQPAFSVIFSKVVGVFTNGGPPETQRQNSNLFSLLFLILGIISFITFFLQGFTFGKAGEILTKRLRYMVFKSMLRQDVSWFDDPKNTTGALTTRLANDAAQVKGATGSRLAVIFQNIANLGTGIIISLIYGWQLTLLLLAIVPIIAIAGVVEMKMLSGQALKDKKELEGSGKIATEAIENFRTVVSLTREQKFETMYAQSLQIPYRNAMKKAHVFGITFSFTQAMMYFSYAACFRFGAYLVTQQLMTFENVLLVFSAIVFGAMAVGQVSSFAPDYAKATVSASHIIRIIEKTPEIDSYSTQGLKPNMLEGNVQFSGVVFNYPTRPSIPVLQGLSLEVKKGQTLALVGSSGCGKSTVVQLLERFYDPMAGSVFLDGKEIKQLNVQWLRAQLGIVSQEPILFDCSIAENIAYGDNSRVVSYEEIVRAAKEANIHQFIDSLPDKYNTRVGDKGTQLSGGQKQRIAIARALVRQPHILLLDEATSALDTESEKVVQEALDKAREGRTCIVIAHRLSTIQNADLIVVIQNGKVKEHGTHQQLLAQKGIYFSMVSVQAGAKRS

Activity: substrate [+]
SMILES: CC[C@]1(O)C[C@H]2CN(CCc3c([nH]c4ccccc34)[C@@](C(=O)OC)(c3cc4c(cc3OC)N(C=O)[C@H]3[C@@](O)(C(=O)OC)[C@H](OC(C)=O)[C@]5(CC)C=CCN6CC[C@]43[C@@H]65)C2)C1 [VINCRISTINE]
